# Earlier results, collected in patent publication US20020042084A1, “Detection of NAALADase inhibitors” (Boehringer Ingelheim Pharma KG, priority 2000, published 2002).
# Residues, ends and D or L forms follow the SMILES beside them.
# Test system: NAALADase
# Conditions: substrate specificity; Serval et al. 1992
row,SMILES,hydrolysis by NAALADase
1,C[C@H](N)C(=O)N[C@@H](CCC(=O)O)C(=O)O [Ala-Glu] (H-Ala-Glu-OH),not hydrolyzed
2,CC(=O)NC(CC(=O)O)C(=O)NC(CCC(=O)O)C(=O)O [D-NAAG] (Ac-Asp-Glu-OH; configuration not given here),not hydrolyzed
3,CC(=O)N[C@@H](CC(=O)N[C@@H](CCC(=O)O)C(=O)O)C(=O)O [β-NAAG],not hydrolyzed
